Assay results: patent US12570650B2, “6-substituted pyridazine compounds as SMARCA2 and/or SMARCA4 degraders” (Aurigene Oncology Limited, priority 2020, dated 2026)
pEC50: −log10 of the molar value.

Legend:
Assay type in all cases: cell-based
[1] = target: T1, SMARCA2 (Homo sapiens, UniProt P51531); assay: SMARCA2 degradation in VCaP cells by Western blot; settings: 16 hours
T1 construct: Determination of SMARCA2 and SMARCA4 Degradation in VCaP Cells by Western Blot; endogenous in cells; host or cells: VCaP (ATCC CRL-2876)
Description: Example-P2: Determination of SMARCA2 and SMARCA4 Degradation in VCaP Cells by Western Blot
VCaP (ATCC CRL-2876) was plated in 6 well plates using complete Dulbecco's Modified Eagle's Medium. On the third day, compounds of present invention were added to cells from 10 mM stocks made in DMSO (Sigma Cat no. D2650). Each concentration of compound was tested with DMSO not exceeding final percentage of 0.3 in the cells. Cells were incubated with the compound for 16 hours followed by harvesting with 1×RIPA lysis buffer (Thermo Fischer, catalogue number #89900) containing protease inhibitor cocktail (Sigma catalogue number #P-8340). Equal amount of protein was loaded on SDS PAGE gel for electrophoresis. Western blot was carried out for detection of either SMARCA2 (Cell signalling technologies, catalogue number #11966) or SMARCA4 antibody (Cell signalling technologies, catalogue number #52251). Beta-Tubulin antibody (Cell signalling technologies, catalogue number #86298) was used as loading control. Percentage of SMARCA2 or SMARCA4 degradation was calculated using formula % Degradation=100−(normalized band intensity in treated sample/normalized band intensity in DMSO sample)*100.

[2] = test system: RERF-LC-A1 cell line; assay: Anti proliferative activity, Cell Titer Glo assay, RERF-LC-A1; settings: 144 h; RERF-LC-A1 cells, terminated day 6 without retreatment, CellTiter-Glo
Description: (§1) Example-P3: Determination of Anti Proliferative Activity of Compounds by Cell Titer Glo®(Promega) Assay
(§2) Cells were seeded into 96-well plates and the plate was incubated in 37 degrees incubator overnight. The next day, compounds were diluted 3-fold to cover 9-point concentration range in DMSO. Intermediate plate dilution was prepared in media followed with compound treatment in cells. Retreatment of cells with compound dilutions was performed on Day 4 and assay was terminated on day 8 for SK-MEL-5 cells using CellTiter-Glo and the plate was kept on orbital shaker for 20 minutes at RT. Assay was terminated on day 6 for RERF-LC-A1 without a compound retreatment. Luminescence signal was recorded on VICTOR^3 instrument. Percent inhibition of proliferation was calculated at each concentration and plotted against the compound concentration. EC50 value was calculated using GraphPad software.
Herein the group “++” refers to EC50 (RERF-LC-A1) values lower than 100 nM and “+” refers to EC50 (RERF-LC-A1) values greater than 100 nM.

[3] = target: T2, SMARCA4 (Homo sapiens, UniProt P51532); assay: SMARCA4 degradation in VCaP cells by Western blot; settings: 16 hours
T2 construct: Determination of SMARCA2 and SMARCA4 Degradation in VCaP Cells by Western Blot; endogenous in cells; host or cells: VCaP (ATCC CRL-2876)
Description: On the third day, compounds of present invention were added to cells from 10 mM stocks made in DMSO (Sigma Cat no. D2650). Each concentration of compound was tested with DMSO not exceeding final percentage of 0.3 in the cells. […] Equal amount of protein was loaded on SDS PAGE gel for electrophoresis. […] Percentage of SMARCA2 or SMARCA4 degradation was calculated using formula % Degradation=100−(normalized band intensity in treated sample/normalized band intensity in DMSO sample)*100.

[4] = test system: SK-MEL-5 cells; assay: Anti proliferative activity, Cell Titer Glo assay, SK-MEL-5; settings: Homo sapiens, SK-MEL-5, SK-MEL-5 cells, retreatment Day 4, terminated day 8, CellTiter-Glo
Description: as §1, §2

T2 sequence (P51532 whole entry): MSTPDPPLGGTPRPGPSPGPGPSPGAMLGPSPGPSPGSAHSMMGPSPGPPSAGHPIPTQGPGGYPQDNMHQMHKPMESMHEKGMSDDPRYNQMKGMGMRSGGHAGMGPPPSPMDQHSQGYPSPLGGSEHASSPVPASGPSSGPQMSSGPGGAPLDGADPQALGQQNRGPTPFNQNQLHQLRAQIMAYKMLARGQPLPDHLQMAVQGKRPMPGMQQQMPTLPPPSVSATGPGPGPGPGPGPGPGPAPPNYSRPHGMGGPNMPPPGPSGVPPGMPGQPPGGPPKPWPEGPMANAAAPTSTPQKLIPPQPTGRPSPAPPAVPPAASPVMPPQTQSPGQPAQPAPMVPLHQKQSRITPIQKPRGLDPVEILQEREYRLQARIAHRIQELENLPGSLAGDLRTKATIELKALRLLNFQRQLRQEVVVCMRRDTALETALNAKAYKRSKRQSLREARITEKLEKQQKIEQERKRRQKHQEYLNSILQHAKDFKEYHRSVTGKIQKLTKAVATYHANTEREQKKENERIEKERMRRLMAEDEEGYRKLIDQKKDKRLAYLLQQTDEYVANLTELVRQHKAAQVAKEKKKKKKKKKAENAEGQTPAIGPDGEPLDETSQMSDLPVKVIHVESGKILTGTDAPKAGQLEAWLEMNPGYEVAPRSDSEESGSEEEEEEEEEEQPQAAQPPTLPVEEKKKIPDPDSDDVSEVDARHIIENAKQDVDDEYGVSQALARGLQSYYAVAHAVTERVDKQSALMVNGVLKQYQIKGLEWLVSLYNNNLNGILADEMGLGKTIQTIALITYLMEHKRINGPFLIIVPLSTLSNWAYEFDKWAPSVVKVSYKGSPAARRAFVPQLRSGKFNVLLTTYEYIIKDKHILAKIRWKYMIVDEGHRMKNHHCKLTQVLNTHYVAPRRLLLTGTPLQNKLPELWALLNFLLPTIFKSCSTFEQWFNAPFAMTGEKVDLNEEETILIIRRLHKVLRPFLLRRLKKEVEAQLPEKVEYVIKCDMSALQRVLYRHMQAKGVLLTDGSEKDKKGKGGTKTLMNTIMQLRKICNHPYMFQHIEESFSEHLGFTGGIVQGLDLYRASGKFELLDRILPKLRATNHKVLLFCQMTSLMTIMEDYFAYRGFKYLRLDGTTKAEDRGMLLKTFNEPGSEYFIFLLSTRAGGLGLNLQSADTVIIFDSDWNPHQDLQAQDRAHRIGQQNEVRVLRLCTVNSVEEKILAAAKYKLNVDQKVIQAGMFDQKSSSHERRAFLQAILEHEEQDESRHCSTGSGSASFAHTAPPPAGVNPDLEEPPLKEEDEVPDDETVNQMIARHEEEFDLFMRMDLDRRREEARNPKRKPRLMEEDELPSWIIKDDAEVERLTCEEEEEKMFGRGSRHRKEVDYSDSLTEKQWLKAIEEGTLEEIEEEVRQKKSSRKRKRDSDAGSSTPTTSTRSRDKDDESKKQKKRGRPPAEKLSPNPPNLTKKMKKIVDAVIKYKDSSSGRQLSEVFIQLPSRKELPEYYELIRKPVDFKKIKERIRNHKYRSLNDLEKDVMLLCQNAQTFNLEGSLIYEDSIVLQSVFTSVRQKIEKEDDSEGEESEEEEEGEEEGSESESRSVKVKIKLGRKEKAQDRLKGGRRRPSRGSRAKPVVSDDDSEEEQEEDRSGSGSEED
T1 sequence (P51531 whole entry): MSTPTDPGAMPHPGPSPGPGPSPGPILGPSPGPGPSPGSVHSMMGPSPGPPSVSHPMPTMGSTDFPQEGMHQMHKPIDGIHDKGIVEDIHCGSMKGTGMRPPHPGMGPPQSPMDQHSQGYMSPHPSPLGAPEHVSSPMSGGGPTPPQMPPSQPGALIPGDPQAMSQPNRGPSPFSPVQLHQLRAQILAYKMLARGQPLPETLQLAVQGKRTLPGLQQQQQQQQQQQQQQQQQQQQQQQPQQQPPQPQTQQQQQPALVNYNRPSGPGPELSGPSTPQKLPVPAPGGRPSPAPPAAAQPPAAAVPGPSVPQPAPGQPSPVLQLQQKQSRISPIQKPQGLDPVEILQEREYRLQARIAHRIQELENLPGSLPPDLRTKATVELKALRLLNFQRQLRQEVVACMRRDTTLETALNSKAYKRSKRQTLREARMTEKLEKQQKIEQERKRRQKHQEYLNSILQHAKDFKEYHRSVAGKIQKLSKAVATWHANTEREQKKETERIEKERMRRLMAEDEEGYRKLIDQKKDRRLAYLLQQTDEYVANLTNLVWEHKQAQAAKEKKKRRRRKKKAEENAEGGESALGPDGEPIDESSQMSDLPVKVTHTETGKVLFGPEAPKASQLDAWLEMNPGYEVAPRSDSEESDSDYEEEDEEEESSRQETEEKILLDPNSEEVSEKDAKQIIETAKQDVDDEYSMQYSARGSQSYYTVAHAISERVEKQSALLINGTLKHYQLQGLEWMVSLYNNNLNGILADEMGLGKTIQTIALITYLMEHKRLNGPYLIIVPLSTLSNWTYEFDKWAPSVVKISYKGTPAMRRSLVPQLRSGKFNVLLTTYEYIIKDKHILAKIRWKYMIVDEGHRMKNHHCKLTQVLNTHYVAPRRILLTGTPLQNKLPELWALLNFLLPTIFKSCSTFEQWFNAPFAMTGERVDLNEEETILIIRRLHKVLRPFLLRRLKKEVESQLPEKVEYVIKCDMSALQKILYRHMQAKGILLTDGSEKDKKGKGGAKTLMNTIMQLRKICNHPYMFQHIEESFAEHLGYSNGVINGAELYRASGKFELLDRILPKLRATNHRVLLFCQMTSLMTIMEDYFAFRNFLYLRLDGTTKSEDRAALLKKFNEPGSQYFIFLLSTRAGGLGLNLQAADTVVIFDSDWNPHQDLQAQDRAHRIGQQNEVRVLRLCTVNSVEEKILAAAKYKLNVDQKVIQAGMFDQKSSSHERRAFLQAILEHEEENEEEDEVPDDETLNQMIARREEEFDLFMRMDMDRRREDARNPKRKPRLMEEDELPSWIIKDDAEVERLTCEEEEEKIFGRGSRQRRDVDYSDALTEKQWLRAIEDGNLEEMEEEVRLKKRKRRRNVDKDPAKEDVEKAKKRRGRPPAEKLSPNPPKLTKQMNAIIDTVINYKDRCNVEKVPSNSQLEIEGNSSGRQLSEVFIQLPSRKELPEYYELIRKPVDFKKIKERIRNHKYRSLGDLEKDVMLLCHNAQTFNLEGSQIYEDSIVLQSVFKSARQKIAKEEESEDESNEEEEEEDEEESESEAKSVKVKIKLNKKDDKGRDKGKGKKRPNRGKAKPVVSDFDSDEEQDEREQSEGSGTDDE

| Compound | Percent degradation (at 100 nM) SMARCA2 [1] | Percent degradation (at 100 nM) SMARCA4 [3] | pEC50 [4] | pEC50 [2] |
| --- | --- | --- | --- | --- |
| Cc1ncsc1-c1ccc([C@H](C)NC(=O)[C@@H]2C[C@@H](O)CN2C(=O)C(c2cc(OCCOc3ccc(-c4cnnc(-c5ccccc5O)c4)cc3)no2)C(C)C)cc1 (mixture of isomers) [Compound 42, (2S,4R)-4-hydroxy-1-(2-(3-(2-(4-(6-(2-hydroxyphenyl)pyridazin-4-yl)phenoxy)ethoxy)isoxazol-5-yl)-3-methylbutanoyl)-N-((S)-1-(4-(4-methylthiazol-5-yl)phenyl)ethyl)pyrrolidine-2-carboxamide] | 57% |  |  | < 7.00 |
| Cc1ncsc1-c1ccc([C@H](C)NC(=O)[C@@H]2C[C@@H](O)CN2C(=O)[C@@H](NC(=O)CN2CCN(c3ccc(-c4cnnc(-c5ccccc5O)c4)cn3)CC2)C(C)(C)C)cc1 [Compound 5, (2S,4R)-4-hydroxy-1-((S)-2-(2-(4-(5-(6-(2-hydroxyphenyl)pyridazin-4-yl)pyridin-2-yl)piperazin-1-yl)acetamido)-3,3-dimethylbutanoyl)-N-((S)-1-(4-(4-methylthiazol-5-yl)phenyl)ethyl)pyrrolidine-2-carboxamide] | 94% | 0% | > 6.60 | < 7.00 |
| Cc1ncsc1-c1ccc([C@H](C)NC(=O)[C@@H]2C[C@@H](O)CN2C(=O)[C@@H](NC(=O)CN2CC=C(c3ccc(-c4cnnc(-c5ccccc5O)c4)cc3)CC2)C(C)(C)C)cc1 [Compound 10, (2S,4R)-4-hydroxy-1-((S)-2-(2-(4-(4-(6-(2-hydroxyphenyl)pyridazin-4-yl)phenyl)-3,6-dihydropyridin-1(2H)-yl)acetamido)-3,3-dimethylbutanoyl)-N-((S)-1-(4-(4-methylthiazol-5-yl)phenyl)ethyl)pyrrolidine-2-carboxamide] | 83% | 0% | 6.30 to 6.60 | > 7.00 |
| Cc1ncsc1-c1ccc([C@H](C)NC(=O)[C@@H]2C[C@@H](O)CN2C(=O)[C@@H](NC(=O)CN2C3CCC2CC(c2ccc(-c4cnnc(-c5ccccc5O)c4)cc2)C3)C(C)(C)C)cc1 (stereo partly drawn) [Compound 25, (2S,4R)-4-hydroxy-1-((2S)-2-(2-(3-(4-(6-(2-hydroxyphenyl)pyridazin-4-yl)phenyl)-8-azabicyclo[3.2.1]octan-8-yl)acetamido)-3,3-dimethylbutanoyl)-N-((S)-1-(4-(4-methylthiazol-5-yl)phenyl)ethyl)pyrrolidine-2-carboxamide] | 75% | 0% | 6.30 to 6.60 |  |
| Cc1ncsc1-c1ccc([C@H](C)NC(=O)[C@@H]2C[C@@H](O)CN2C(=O)[C@@H](NC(=O)CN2CCC(O)(c3ccc(-c4cnnc(-c5ccccc5O)c4)cc3)CC2)C(C)(C)C)cc1 [Compound 32, (2S,4R)-4-hydroxy-1-((S)-2-(2-(4-hydroxy-4-(4-(6-(2-hydroxyphenyl)pyridazin-4-yl)phenyl)piperidin-1-yl)acetamido)-3,3-dimethylbutanoyl)-N-((S)-1-(4-(4-methylthiazol-5-yl)phenyl)ethyl)pyrrolidine-2-carboxamide] | 57% | 0% | < 6.30 |  |
| Cc1ncsc1-c1ccc([C@H](C)NC(=O)[C@@H]2C[C@@H](O)CN2C(=O)[C@@H](NC(=O)CCCCNc2ccc(-c3cnnc(-c4ccccc4O)c3)cc2)C(C)(C)C)cc1 [Compound 36, (2S,4R)-4-hydroxy-1-((S)-2-(5-((4-(6-(2-hydroxyphenyl)pyridazin-4-yl)phenyl)amino)pentanamido)-3,3-dimethylbutanoyl)-N-((S)-1-(4-(4-methylthiazol-5-yl)phenyl)ethyl)pyrrolidine-2-carboxamide] | 90% | 19% | > 6.60 |  |

Continued, in another order:

| Percent degradation (at 100 nM) SMARCA2 [1] | Percent degradation (at 100 nM) SMARCA4 [3] | pEC50 [4] | Compound | pEC50 [2] |
| --- | --- | --- | --- | --- |
| 94% | 0% | > 6.60 | Cc1ncsc1-c1ccc([C@H](C)NC(=O)[C@@H]2C[C@@H](O)CN2C(=O)[C@@H](NC(=O)CN2CCN(c3ccc(-c4cnnc(-c5ccccc5O)c4)cc3)CC2)C(C)(C)C)cc1 [Compound 2, (2S,4R)-4-hydroxy-1-((S)-2-(2-(4-(4-(6-(2-hydroxyphenyl)pyridazin-4-yl)phenyl)piperazin-1-yl)acetamido)-3,3-dimethylbutanoyl)-N-((S)-1-(4-(4-methylthiazol-5-yl)phenyl)ethyl)pyrrolidine-2-carboxamide] | > 7.00 |
| 97% | 40% | > 6.60 | Cc1ncsc1-c1ccc([C@H](C)NC(=O)[C@@H]2C[C@@H](O)CN2C(=O)[C@@H](NC(=O)CC2CCN(c3ccc(-c4cnnc(-c5ccccc5O)c4)cc3)CC2)C(C)(C)C)cc1 [Compound 6, (2S,4R)-4-hydroxy-1-((S)-2-(2-(1-(4-(6-(2-hydroxyphenyl)pyridazin-4-yl)phenyl)piperidin-4-yl)acetamido)-3,3-dimethylbutanoyl)-N-((S)-1-(4-(4-methylthiazol-5-yl)phenyl)ethyl)pyrrolidine-2-carboxamide] | > 7.00 |
|  |  | < 6.30 | Cc1ncsc1-c1ccc([C@H](C)NC(=O)[C@@H]2C[C@@H](O)CN2C(=O)[C@@H](NC(=O)C(C)N2CCC(c3ccc(-c4cnnc(-c5ccccc5O)c4)cc3)CC2)C(C)(C)C)cc1 (stereo partly drawn) [Compound 14, (2S,4R)-4-hydroxy-1-((2S)-2-(2-(4-(4-(6-(2-hydroxyphenyl)pyridazin-4-yl)phenyl)piperidin-1-yl)propanamido)-3,3-dimethylbutanoyl)-N-((S)-1-(4-(4-methylthiazol-5-yl)phenyl)ethyl)pyrrolidine-2-carboxamide] | > 7.00 |
| 21% | 4% | < 6.30 | Cc1ncsc1-c1ccc([C@H](C)NC(=O)[C@@H]2C[C@@H](O)CN2C(=O)[C@@H](NC(=O)CN2CC(c3ccc(-c4cnnc(-c5ccccc5O)c4)cc3)C2)C(C)(C)C)cc1 [Compound 21, (2S,4R)-4-hydroxy-1-((S)-2-(2-(3-(4-(6-(2-hydroxyphenyl)pyridazin-4-yl)phenyl)azetidin-1-yl)acetamido)-3,3-dimethylbutanoyl)-N-((S)-1-(4-(4-methylthiazol-5-yl)phenyl)ethyl)pyrrolidine-2-carboxamide] |  |
| 15% | 0% | < 6.30 | Cc1ncsc1-c1ccc([C@H](C)NC(=O)[C@@H]2C[C@@H](O)CN2C(=O)[C@@H](NC(=O)CN2CCC(c3cccc(-c4cnnc(-c5ccccc5O)c4)c3)CC2)C(C)(C)C)cc1 [Compound 23, (2S,4R)-4-hydroxy-1-((S)-2-(2-(4-(3-(6-(2-hydroxyphenyl)pyridazin-4-yl)phenyl)piperidin-1-yl)acetamido)-3,3-dimethylbutanoyl)-N-((S)-1-(4-(4-methylthiazol-5-yl)phenyl)ethyl)pyrrolidine-2-carboxamide] |  |
| 38% | 0% | 6.30 to 6.60 | Cc1ncsc1-c1ccc([C@H](C)NC(=O)[C@@H]2C[C@@H](O)CN2C(=O)[C@@H](NC(=O)C(C)N2CCN(c3ccc(-c4cnnc(-c5ccccc5O)c4)cc3)CC2)C(C)(C)C)cc1 (some centres unmarked) [Compound 28] |  |
| 89% | 0% | 6.30 to 6.60 | Cc1ncsc1-c1ccc([C@H](C)NC(=O)[C@@H]2C[C@@H](O)CN2C(=O)[C@@H](NC(=O)CN2CC3(CC(c4ccc(-c5cnnc(-c6ccccc6O)c5)cc4)C3)C2)C(C)(C)C)cc1 [Compound 31, (2S,4R)-4-hydroxy-1-((S)-2-(2-(6-(4-(6-(2-hydroxyphenyl)pyridazin-4-yl)phenyl)-2-azaspiro[3.3]heptan-2-yl)acetamido)-3,3-dimethylbutanoyl)-N-((S)-1-(4-(4-methylthiazol-5-yl)phenyl)ethyl)pyrrolidine-2-carboxamide] |  |
